The values that follow come from US20030109490A1, “Composite stimulating iNOS enzyme which induce immuno-reactant nitric oxide synthesis and process for preparing the same” (priority 2001, published 2003).

The subject of assay [1] is Macrophage RAW264.7. Put plainly: NO production by macrophage RAW264.7 (microplate assay, griess reagent). Format: cell-based. Particulars: TAXOL 10 μg/ml.
Description: The production of NO was investigated as the following experiment
Macrophage RAW264.7(ATCC) was cultivated in RPMI-1640 medium (RPMI-1640 GibcoBRL 23400-021) 1.62%, sodium hydrogen carbonate 0.2%, penicillin and streptomycin 1%) supplemented with 10% fetal bovine serum (GibcoBRL 26140-079, FBS). Cell was incubated at 37° C., 5% CO2, and 95% of humidified air (CO2 incubator).
The production of NO was determined by employing microplate assay and the production of nitrate (NO3^−) which is an oxidized product of NO was also determined Macrophage RAW264.7(3×10^5 cells/ml) was grown in Dulbecco's modified eagle's medium supplemented with 100 U/ml penicillin, 100 μg/ml streptomycin, 10% FBS, 6 g/L HEPES, 3.7 g/L sodium hydrogen carbonate. Cell was stimulated against various control groups. Medium itself, rIFN-γ+the composite of the present invention, rIFN-γ+the composite of the present invention+LPS were stimulated to measure the production of nitrate (NO3^−) with time. After macrophage was cultured with INFγ 10 U/ml for 6 hours, the cell was incubated with each of the composite of the present invention (1 μg/ml), LPS(10 μg/ml), and the composite of the present invention (1 μg/ml)+LPS(10 μg/ml) to induce the production of nitrate (NO3^−).
The medium was centrifuged (1000 ppm, 10 minutes) and 100 μl of the culture supernatant was reacted with 100 μl of griess reagent (37.5 mM sulphanilic acid, 12.5 mM N-(1-naphthyl) ethylenediamine dihydrochloride, 6.5 mM hydrogen chloride) at room temperature for 10 minutes. Absorbance was measured at 540 nm using spectrophotometer. After correlation coefficient between concentration of NO3^− and absorbance was determined using nitric acid salts having concentration of 0 to 5 μM, the concentration of NO3^−-produced from macrophage RAW264.7 was calculated.
Assay [2] in a line: anti-oxidative activity calculated as UV blocking value. It is filed as physicochemical. The settings on record: 528 nm. The method, then: The anti-oxidative activity of the composite of this invention was measured at the wavelength of 528 nm using an UV-visible spectrometer (Cary, Virian Co., USA).
In assay [3] the test system is Macrophage RAW 264.7. Put plainly: TNF-α secretion of macrophage RAW 264.7 (ELISA). It is filed as cell-based. The settings on record: rIFN-γ alone, no LPS, no composite, 28 hrs.
Description: Macrophage RAW 264.7 (3×10^5 cells/well) was cultivated in RPMI-1640 medium supplemented with each of rIFN-γ, composite of this invention, and rIFN-γ+LPS, and rIFN-γ+composite of this invention for 28 hrs.
The secretion amount of TNF-α in the aforementioned cell was measured at a wavelength of 405 nm using ELISA method. Prior to analysis, several drops of 0.05% PBS (phosphate-buffered saline) was added to Tween 20 for its washing. All specimens for analysis was cultivated at 37° C. for 2 hrs. Recombinant murine TNF-α, so diluted, was used as a standard solution. An assay plate was exposed to (containing biotylate murine TNF-α, avidine peroxide, 30% H2O2), a substrate solution of ABTS (Azinobis(3-ethylbenzothiazoline-6-sulfonic acid).

`CC(=O)O[C@H]1C(=O)[C@@]2(C)[C@H]([C@H](OC(=O)c3ccccc3)[C@]3(O)C[C@H](OC(=O)[C@H](O)[C@@H](NC(=O)c4ccccc4)c4ccccc4)C(C)=C1C3(C)C)[C@]1(OC(C)=O)CO[C@@H]1C[C@@H]2O` [TAXOL ®]: the NO was less than 4.0 µM in assay [1] (rIFN-γ added, no LPS, 0 h); 30.56 ± 3.2 µM in assay [1] (rIFN-γ added, no LPS, 12 h); 45.1 ± 1.2 µM in assay [1] (rIFN-γ and LPS added, 24 h).

Take `O=C1O[C@H]([C@@H](O)CO)C(O)=C1O` [Vitamin C]: the “anti-oxidative activity (UV blocking value)” value in assay [2] (0.1% solution) was 21.23%; in assay [2] (0.5% solution) it was 28.51%; in assay [2] (1% solution), 47.83%; in assay [2] (2% solution), 58.28%.

B1: rIFN-γ: recombinant IFN-γ used to stimulate macrophage RAW264.7 (protein, UniProt P01580 23-155, looked up)
Interferon gamma: HGTVIESLESLNNYFNSSGIDVEEKSLFLDIWRNWQKDGDMKILQSQIISFYLRLFEVLKDNQAISNNISVIESHLITTFFSNSKAKKDAFMSIAKFEVNNPQVQRQAFNELIRVVHQLLPESSLRKRKRSRC
Molecule B1 returned a TNF-a in assay [3] of 0.76 ± 0.02 ng/mL.
